This test concerns the target T1, Human Polθ polymerase domain (aa1820-2590) (Homo sapiens, UniProt O75417).
T1 construct: Human Polθ polymerase domain (aa1820-2590) was expressed in E. coli; made in house; host or cells: E. coli
T1 sequence (O75417 1820-2590): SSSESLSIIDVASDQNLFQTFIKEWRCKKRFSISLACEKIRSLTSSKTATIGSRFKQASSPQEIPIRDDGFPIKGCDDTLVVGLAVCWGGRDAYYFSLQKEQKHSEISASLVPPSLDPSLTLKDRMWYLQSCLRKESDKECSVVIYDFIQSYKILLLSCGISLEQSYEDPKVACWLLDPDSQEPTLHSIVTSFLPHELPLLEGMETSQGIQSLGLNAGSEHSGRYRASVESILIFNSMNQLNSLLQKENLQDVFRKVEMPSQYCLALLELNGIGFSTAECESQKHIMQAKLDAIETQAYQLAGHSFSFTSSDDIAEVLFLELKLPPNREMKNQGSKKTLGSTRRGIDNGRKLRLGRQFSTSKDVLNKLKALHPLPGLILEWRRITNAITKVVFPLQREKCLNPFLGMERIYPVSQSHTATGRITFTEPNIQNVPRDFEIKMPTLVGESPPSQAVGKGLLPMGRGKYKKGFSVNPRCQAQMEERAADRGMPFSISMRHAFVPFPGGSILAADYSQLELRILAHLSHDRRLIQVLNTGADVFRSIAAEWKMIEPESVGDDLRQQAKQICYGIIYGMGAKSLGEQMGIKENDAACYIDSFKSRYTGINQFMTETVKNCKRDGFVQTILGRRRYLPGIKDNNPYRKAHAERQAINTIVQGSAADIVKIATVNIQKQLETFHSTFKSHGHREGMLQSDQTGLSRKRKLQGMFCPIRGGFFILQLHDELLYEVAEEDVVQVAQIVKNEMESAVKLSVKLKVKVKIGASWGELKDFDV
The test can be described thus: Polθ Polymerase Domain Kinact/KI Assay (PicoGreen). It counts as biochemical. Particulars: 0.8 nM Polθ, 100 nM DNA substrate, kobs vs [I] fit for 2-step covalent inhibitor. The method in brief:
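PicoGreen fluorescence read-out of primer extension; progress curves per inhibitor concentration fitted for kobs, then kobs vs [I] fitted to a two-step covalent model to give Kinact and KI. Conditions: 0.8 nM enzyme, 100 nM DNA substrate, […].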

For the compound `C=CC(=O)N1CC[C@H]1c1nnc(CN2C[C@H]3CC(=O)N(c4cc(C(F)(F)F)cc(C)n4)[C@@H]3C(=O)N(C)c3cccc(C)c32)o1` [Example 275, (3aR,11aS)-5-((5-((S)-1-acryloylazetidin-2-yl)-1,3,4-oxadiazol-2-yl)methyl)-6,10-dimethyl-1-(6-methyl-4-(trifluoromethyl)pyridin-2-yl)-1,3a,4,5,10,11a-hexahydro-2H-benzo[b]pyrrolo[2,3-f][1,4]diazocine-2,11(3H)-dione], the Kinact/Kl came to 0.80 µM⁻¹ s⁻¹.

With `C=CC(=O)N1CC(F)(COCCN2C[C@H]3CC(=O)N(c4cc(C(F)(F)F)cc(C)n4)[C@@H]3C(=O)N(C)c3cccc(Cl)c32)C1` [Example 285, (3aR,11aS)-5-(2-((1-acryloyl-3-fluoroazetidin-3-yl)methoxy)ethyl)-6-chloro-10-methyl-1-(6-methyl-4-(trifluoromethyl)pyridin-2-yl)-1,3a,4,5,10,11a-hexahydro-2H-benzo[b]pyrrolo[2,3-f][1,4]diazocine-2,11(3H)-dione], the Kinact/Kl was determined as 1.98 µM⁻¹ s⁻¹.

The compound `C=CC(=O)N1CC(N2CCN(CCN3C[C@H]4CC(=O)N(c5cc(C(F)(F)F)cc(C)n5)[C@@H]4C(=O)N(C)c4cc(F)cc(C5CC5)c43)CC2)C1` [Example 19, (3aR,11aS)-5-(2-(4-(1-acryloylazetidin-3-yl)piperazin-1-yl)ethyl)-6-cyclopropyl-8-fluoro-10-methyl-1-(6-methyl-4-(trifluoromethyl)pyridin-2-yl)-1,3a,4,5,10,11a-hexahydro-2H-benzo[b]pyrrolo[2,3-f][1,4]diazocine-2,11(3H)-dione] displayed a Kinact/Kl of 0.35 µM⁻¹ s⁻¹.

Consider `C=CC(=O)N1CCC[C@@H]1c1nnc(CN2C[C@H]3CC(=O)N(c4cc(C(F)(F)F)cc(C)n4)[C@@H]3C(=O)N(C)c3cccc(C)c32)o1` [Example 272, (3aR,11aS)-5-((5-((R)-1-acryloylpyrrolidin-2-yl)-1,3,4-oxadiazol-2-yl)methyl)-6,10-dimethyl-1-(6-methyl-4-(trifluoromethyl)pyridin-2-yl)-1,3a,4,5,10,11a-hexahydro-2H-benzo[b]pyrrolo[2,3-f][1,4]diazocine-2,11(3H)-dione], for which the Kinact/Kl was found to be 0.033 µM⁻¹ s⁻¹.

The compound `C=CC(=O)N1CC(N2CCN(CCN3C[C@H]4CC(=O)N(c5cc(C(F)(F)F)cc(C)n5)[C@@H]4C(=O)N(C)c4cc(F)ccc43)CC2)C1` [Example 15, (3aR,11aS)-5-(2-(4-(1-acryloylazetidin-3-yl)piperazin-1-yl)ethyl)-8-fluoro-10-methyl-1-(6-methyl-4-(trifluoromethyl)pyridin-2-yl)-1,3a,4,5,10,11a-hexahydro-2H-benzo[b]pyrrolo[2,3-f][1,4]diazocine-2,11(3H)-dione] gave a Kinact/Kl of 0.073 µM⁻¹ s⁻¹.

For `Cc1cc(C(F)(F)F)cc(N2C(=O)C[C@@H]3CN(CCCOC4CN(C(=O)C5=CCCN(C)C5)C4)c4c(C)cccc4N(C)C(=O)[C@H]32)n1` [Example 196, (3aR,11aS)-6,10-dimethyl-5-(3-((1-(1-methyl-1,2,5,6-tetrahydropyridine-3-carbonyl)azeti-din-3-yl)oxy)prop-yl)-1-(6-methyl-4-(trifluoromethyl)-pyridin-2-yl)-1,3a,4,5,10,11a-hexahydro-2H-benzo[b]pyrrolo [2,3-f][1,4]diazo-cine-2,11(3H)-dione], the Kinact/Kl worked out at 2.06 µM⁻¹ s⁻¹.

With `C=C(CN(C)C)C(=O)N1CC(OCCCN2C[C@H]3CC(=O)N(c4cc(C(F)(F)F)cc(C)n4)[C@@H]3C(=O)N(C)c3cccc(F)c32)C1` [Example 150, (3aR, 11aS)-5-(3-((1-(2-((dimethylamino)methyl)acryloyl)azetidin-3-yl)oxy)propyl)-6-fluoro-10-methyl-1-(6-methyl-4-(trifluoromethyl)pyridin-2-yl)-1,3a,4,5,10,11a-hexahydro-2H-benzo[b]pyrrolo[2,3-f][1,4]diazocine-2,11(3H)-dione], the Kinact/Kl was 3.35 µM⁻¹ s⁻¹.

For `C=C(CN(C)C)C(=O)NCc1ccc(CN2C[C@H]3CC(=O)N(c4cc(C(F)(F)F)cc(C)n4)[C@@H]3C(=O)N(C)c3cccc(C)c32)cn1` [Example 190, N-((5-(((3aR,11aS)-6,10-dimethyl-1-(6-methyl-4-(trifluoro-methyl)pyridin-2-yl)-2,11-dioxo-1,2,3,3a,4,10,11, 11a-octahydro-5H-benzo[b]pyrrolo [2,3-f][1,4]diazo-cin-5-yl)methyl)-pyridin-2-yl)meth-yl)-2-((dimethyl-amino)methyl)-acrylamide], the Kinact/Kl was 2.93 µM⁻¹ s⁻¹.

`C=C(CN(C)C)C(=O)N1CCn2cc(CN3C[C@H]4CC(=O)N(c5cc(C(F)(F)F)cc(C)n5)[C@@H]4C(=O)N(C)c4cccc(Cl)c43)nc2C1` [Example 159] yielded a Kinact/Kl of 3.07 µM⁻¹ s⁻¹.

`Cc1cc(C(F)(F)F)cc(N2C(=O)C[C@@H]3CN(Cc4cc(F)c(NC(=O)/C=C/CN(C)C)c(F)c4)c4c(Cl)cccc4N(C)C(=O)[C@H]32)n1` [Example 309, (E)-N-(4-(((3aR,11aS)-6-chloro-10-methyl-1-(6-methyl-4-(trifluoromethyl)pyridin-2-yl)-2,11-dioxo-1,2,3,3a,4,10,11,11a-octahydro-5H-benzo[b]pyrrolo[2,3-f][1,4]diazocin-5-yl)methyl)-2,6-difluorophenyl)-4-(dimethylamino)but-2-enamide]: the Kinact/Kl came to 1.02 µM⁻¹ s⁻¹.

In the case of `Cc1cc(C(F)(F)F)cc(N2C(=O)C[C@@H]3CN(Cc4cn5c(n4)CN(C(=O)/C=C/C(F)F)CC5)c4c(Cl)cccc4N(C)C(=O)[C@H]32)n1` [Example 306, (3aR,11aS)-6-chloro-5-((7-((E)-4,4-difluorobut-2-enoyl)-5,6,7,8-tetrahydroimidazo[1,2-a]pyrazin-2-yl)methyl)-10-methyl-1-(6-methyl-4-(trifluoromethyl)pyridin-2-yl)-1,3a,4,5,10,11a-hexahydro-2H-benzo[b]pyrrolo[2,3-f][1,4]diazocine-2,11(3H)-dione], the Kinact/Kl worked out at 1.54 µM⁻¹ s⁻¹.

The compound `Cc1cc(C(F)(F)F)cc(N2C(=O)C[C@@H]3CN(Cc4ccc(NC(=O)/C=C/CN(C)C)cc4)c4c(C)cccc4N(C)C(=O)[C@H]32)n1` [Example 207, (E)-N-(4-(((3aR, 11aS)-6,10-dimethyl-1-(6-methyl-4-(trifluoromethyl)pyridin-2-yl)-2,11-dioxo-1,2,3,3a,4,10,11,11a-octahydro-5H-benzo[b]pyrrolo[2,3-f][1,4]diazocin-5-yl)methyl)phenyl)-4-(dimethylamino) but-2-enamide] showed a Kinact/Kl of 1.82 µM⁻¹ s⁻¹.

Turning to `C=CC(=O)N1CC2(C1)CN(C(=O)CN1C[C@H]3CC(=O)N(c4cc(C(F)(F)F)cc(C)n4)[C@@H]3C(=O)N(C)c3cccc(F)c31)C[C@@H](C)N2` [Example 52, (3aR,11aS)-5-(2-((R)-2-acryloyl-6-methyl-2,5,8-triazaspiro[3.5]nonan-8-yl)-2-oxoethyl)-6-fluoro-10-methyl-1-(6-methyl-4-(trifluoromethyl)pyridin-2-yl)-1,3a,4,5,10,11a-hexahydro-2H-benzo[b]pyrrolo[2,3-f][1,4]diazocine-2,11(3H)-dione], the Kinact/Kl turned out to be 0.19 µM⁻¹ s⁻¹.

Compound `C=CC(=O)N1CC2(C1)[C@H](C)N(CCN1C[C@H]3CC(=O)N(c4cc(C(F)(F)F)cc(C)n4)[C@@H]3C(=O)N(C)c3cccc(F)c31)C[C@H]1COCCN12` (single isomer, unassigned) [Example 8] registered a Kinact/Kl of 2.00 µM⁻¹ s⁻¹.

Compound `Cc1cc(C(F)(F)F)cc(N2C(=O)C[C@@H]3CN(Cc4cccc(C5CN(C(=O)/C=C/CN(C)C)C5)c4)c4c(F)cccc4N(C)C(=O)[C@H]32)n1` [Example 147, (3aR,11aS)-5-(3-(1-((E)-4-(dimethylamino)but-2-enoyl)azetidin-3-yl)benzyl)-6-fluoro-10-methyl-1-(6-methyl-4-(trifluoromethyl)pyridin-2-yl)-1,3a,4,5,10,11a-hexahydro-2H-benzo[b]pyrrolo[2,3-f][1,4]diazocine-2,11(3H)-dione] yielded a Kinact/Kl of 0.61 µM⁻¹ s⁻¹.

As to `C=CC(=O)N1CCN(c2nc(CN3C[C@H]4CC(=O)N(c5cc(C(F)(F)F)cc(C)n5)[C@@H]4C(=O)N(C)c4cccc(F)c43)co2)CC1` [Example 124, (3aR,11aS)-5-((2-(4-acryloylpiperazin-1-yl)oxazol-4-yl)methyl)-6-fluoro-10-methyl-1-(6-methyl-4-(trifluoromethyl)pyridin-2-yl)-1,3a,4,5,10,11a-hexahydro-2H-benzo[b]pyrrolo[2,3-f][1,4]diazocine-2,11(3H)-dione], the Kinact/Kl worked out at 0.011 µM⁻¹ s⁻¹.
